Active and inactive are the calls of the source. The calls are words filed in the database; no cut-off is given here.
Experiments:
[1] = test system: HCT-116; assay: Induction of apoptosis in human HCT-116 cells assessed as modulation of DDX18 mRNA expression at 10 to 500 nM incubated for 6 to 48 hrs by RNA analysis; type: functional, cell-based; conditions: dose 10-500 nM, time 6-48 hrs
[2] = test system: HCT-116; assay: Induction of apoptosis in human HCT-116 cells assessed as downregulation of NUDT15 gene expression at 10 to 500 nM incubated for 6 to 48 hrs by RNA analysis; type: functional, cell-based; conditions: dose 10-500 nM, time 6-48 hrs
[3] = test system: HCT-116; assay: Activation of innate immune response in human HCT-116 cells assessed as upregulation of IRF3 gene expression at 10 to 500 nM incubated for 6 to 48 hrs by RNA analysis; type: functional, cell-based; conditions: dose 10-500 nM, time 6-48 hrs
[4] = test system: HCT-116; assay: Induction of apoptosis in human HCT-116 cells assessed as downregulation of ACACA gene expression at 10 to 500 nM incubated for 6 to 48 hrs by RNA analysis; type: functional, cell-based; conditions: dose 10-500 nM, time 6-48 hrs
[5] = test system: HCT-116; assay: Induction of apoptosis in human HCT-116 cells assessed as downregulation of TPR gene expression at 10 to 500 nM incubated for 6 to 48 hrs by RNA analysis; type: functional, cell-based; conditions: dose 10-500 nM, time 6-48 hrs
[6] = test system: HCT-116; assay: Induction of apoptosis in human HCT-116 cells assessed as downregulation of NUP98 gene expression at 10 to 500 nM incubated for 6 to 48 hrs by RNA analysis; type: functional, cell-based; conditions: dose 10-500 nM, time 6-48 hrs
[7] = test system: HCT-116; assay: Induction of apoptosis in human HCT-116 cells assessed as modulation of DDX49 mRNA expression at 10 to 500 nM incubated for 6 to 48 hrs by RNA analysis; type: functional, cell-based; conditions: dose 10-500 nM, time 6-48 hrs
[8] = test system: HCT-116; assay: Induction of apoptosis in human HCT-116 cells assessed as modulation of TOP2A mRNA expression at 10 to 500 nM incubated for 6 to 48 hrs by RNA analysis; type: functional, cell-based; conditions: dose 10-500 nM, time 6-48 hrs
[9] = test system: HCT-116; assay: Induction of apoptosis in human HCT-116 cells assessed as downregulation of NT5C3A gene expression at 10 to 500 nM incubated for 6 to 48 hrs by RNA analysis; type: functional, cell-based; conditions: dose 10-500 nM, time 6-48 hrs
[10] = Toxicity in SCID mouse xenografted with human PDX27454 cells assessed as body weight loss at 2.5 to 5 mg/kg,ip administrated once per week for 4 weeks; type: organism-based; conditions: in vivo, 672 h, dose 2.5-5 mg/kg
[11] = Toxicity in SCID mouse xenografted with human PDX27454 cells assessed as body weight loss at 7 mg/kg,po administrated once per week for 4 weeks; type: organism-based; conditions: in vivo, 672 h
[12] = test system: HCT-116; assay: Growth inhibition of human HCT-116 cells incubated for 48 hrs by MTT reagent based ELISA reader analysis; type: functional, cell-based; conditions: HCT-116, 48 h
[13] = test system: HCT-116; assay: Induction of apoptosis in human HCT-116 cells assessed as upregulation of POLR2A mRNA expression at 10 to 500 nM incubated for 6 to 48 hrs by RNA analysis; type: functional, cell-based; conditions: dose 10-500 nM, time 6-48 hrs
[14] = test system: HCT-116; assay: Induction of apoptosis in human HCT-116 cells assessed as downregulation of PUDP gene expression at 10 to 500 nM incubated for 6 to 48 hrs by RNA analysis; type: functional, cell-based; conditions: dose 10-500 nM, time 6-48 hrs
[15] = test system: HCT-116; assay: Induction of apoptosis in human HCT-116 cells assessed as increase in intracellular ROS level at 10 to 1000 nM incubated for 12 hrs by DCFH-DA staining based fluorescence microscopy; type: functional, cell-based; conditions: dose 10-1000 nM
[16] = test system: HCT-116; assay: Induction of apoptosis in human HCT-116 cells assessed as downregulation of MCL-1 protein expression incubated for 48 hrs by Western blotting analysis; type: functional, cell-based
[17] = test system: HCT-116; assay: Induction of apoptosis in human HCT-116 cells assessed as downregulation of TXNRD1 gene expression at 10 to 500 nM incubated for 6 to 48 hrs by RNA analysis; type: functional, cell-based; conditions: dose 10-500 nM, time 6-48 hrs
[18] = Toxicity in SCID mouse xenografted with human PDX27454 cells assessed as body weight loss at 3 to 5 mg/kg,po administrated once per week for 4 weeks; type: organism-based; conditions: in vivo, 672 h, dose 3-5 mg/kg
[19] = test system: HCT-116; assay: Induction of apoptosis in human HCT-116 cells assessed as downregulation of PCK2 gene expression at 10 to 500 nM incubated for 6 to 48 hrs by RNA analysis; type: functional, cell-based; conditions: dose 10-500 nM, time 6-48 hrs
[20] = test system: HCT-116; assay: Induction of apoptosis in human HCT-116 cells assessed as downregulation of XIAP protein expression incubated for 48 hrs by Western blotting analysis; type: functional, cell-based
[21] = test system: HCT-116; assay: Induction of apoptosis in human HCT-116 cells assessed as downregulation of DHODH gene expression at 10 to 500 nM incubated for 6 to 48 hrs by RNA analysis; type: functional, cell-based; conditions: dose 10-500 nM, time 6-48 hrs
[22] = test system: HCT-116; assay: Induction of apoptosis in human HCT-116 cells assessed as downregulation of GNPDA2 gene expression at 10 to 500 nM incubated for 6 to 48 hrs by RNA analysis; type: functional, cell-based; conditions: dose 10-500 nM, time 6-48 hrs
[23] = test system: HCT-116; assay: Induction of apoptosis in human HCT-116 cells assessed as late apoptotic cells at 10 nM incubated for 48 hrs by Annexin V-FITC/PI staining based flow cytometry assay; type: functional
[24] = test system: HCT-116; assay: Induction of apoptosis in human HCT-116 cells assessed as late apoptotic cells at 5 nM incubated for 48 hrs by Annexin V-FITC/PI staining based flow cytometry assay; type: functional
[25] = test system: HCT-116; assay: Induction of apoptosis in human HCT-116 cells assessed as increase in caspase-9 activity incubated for 48 hrs by BCA protein assay; type: functional, cell-based
[26] = test system: HCT-116; assay: Induction of apoptosis in human HCT-116 cells assessed as early apoptotic cells at 5 nM incubated for 48 hrs by Annexin V-FITC/PI staining based flow cytometry assay; type: functional
[27] = test system: Cell membrane; assay: Induction of mitochondrial membrane potential loss in human HCT-116 cells assessed as ratio of red to green fluorescence intensity at 20 nM incubated for 24 hrs by JC-1 staining based flow cytometry; type: subcellular
[28] = test system: PDX27454; assay: Antitumor activity against human PDX27454 cells xenografted in SCID mouse model assessed as reduction in tumor growth at 5 to 15 mg/kg,ip administrated once per week for 4 weeks; type: functional, organism-based; conditions: dose 5-15 mg/kg
[29] = test system: HCT-116; assay: Induction of apoptosis in human HCT-116 cells assessed as upregulation of cytochrome-C protein expression incubated for 48 hrs by Western blotting analysis; type: functional, cell-based
[30] = test system: HCT-116; assay: Induction of apoptosis in human HCT-116 cells assessed as late apoptotic cells at 2.5 nM incubated for 48 hrs by Annexin V-FITC/PI staining based flow cytometry assay; type: functional
[31] = test system: HCT-116; assay: Induction of apoptosis in human HCT-116 cells assessed as upregulation of p21 protein expression incubated for 48 hrs by Western blotting analysis; type: functional, cell-based
[32] = test system: PDX27454; assay: Antitumor activity against human PDX27454 cells xenografted in SCID mouse model assessed as reduction in tumor growth at 15 mg/kg,po administrated once per week for 4 weeks; type: functional, organism-based
[33] = test system: PDX27454; assay: Antitumor activity against human PDX27454 cells xenografted in SCID mouse model assessed as reduction in tumor growth at 15 mg/kg,ip administrated once per week for 4 weeks; type: functional, organism-based
[34] = test system: PDX27454; assay: Antitumor activity against human PDX27454 cells xenografted in SCID mouse model assessed as reduction in tumor growth at 10 mg/kg,po administrated once per week for 4 weeks; type: functional, organism-based
[35] = test system: PDX27454; assay: Antitumor activity against human PDX27454 cells xenografted in SCID mouse model assessed as reduction in tumor growth at 10 mg/kg,ip administrated once per week for 4 weeks; type: functional, organism-based

Compound | Activity [1] | Activity [2] | Activity [3] | Activity [4] | Activity [5] | Activity [6] | Activity [7] | Activity [8] | Activity [9] | IC50 [12] [nM] | Activity [13] | Activity [14] | Activity [15] | Activity [16] | Activity [17] | Activity [19] | Activity [20] | other results
CC[C@@]1(O)C(=O)OCc2c1cc1n(c2=O)Cc2c-1nc1cc3c(cc1c2-c1ccc(OC)cc1)OCO3 | Active | Active | Active | Active | Active | Active | Active | Active | Active | 17.7 | Active | Active | Active | Active | Active | Active | Active | Activity [10]: Toxic; Activity [11]: > 20%; Activity [18]: Toxic
CC[C@@]1(O)C(=O)OCc2c1cc1n(c2=O)Cc2cc3cc4c(cc3nc2-1)OCO4 | Active | Active | Active | Active | Active | Active | Active | Active | Active | 23.5 | Active | Active | Active |  | Active | Active |  | Activity [21]: Active; Activity [22]: Active
CC[C@@]1(O)C(=O)OCc2c1cc1n(c2=O)Cc2c-1nc1cc3c(cc1c2-c1cc(OC)cc(OC)c1)OCO3 | Active |  | Active | Active | Active | Active | Active | Active | Active | 99.4 | Active | Active | Active | Active | Active | Active |  | Activity [23]: 10.87%; Activity [24]: 9.79%; Activity [25]: Dose-Dependent Effect; Activity [26]: 26.86%; Ratio [27]: 2.62; Activity [28]: Active; Activity [29]: Dose-Dependent Effect; Activity [30]: 5.58%; Activity [31]: Dose-Dependent Effect
CCc1ccc(-c2c3c(nc4cc5c(cc24)OCO5)-c2cc4c(c(=O)n2C3)COC(=O)[C@]4(O)CC)cc1 | Active | Active | Active | Active | Active | Active | Active | Active | Active | 55.6 | Active | Active | Active | Active | Active | Active | Active | Activity [32]: Active; Activity [33]: inactive; Activity [34]: Active; Activity [35]: inactive

Source: ChEMBL document CHEMBL5376003, “Structure-Activity Relationship of FL118 Platform Position 7 Versus Position 9-Derived Compounds and Their Mechanism of Action and Antitumor Activity” (J Med Chem, 2023)
